Structures can show the parent of a compound that is named as a salt.
Legend:
[1] = Anti-oxidant activity (Table 6); conditions: read-out: IC-50 Anti-Oxidant Activity; nd = not detectable at ≤ 500 uM
PLA2 = experiment: Anti-PLA2 activity (Table 6); type: biochemical; conditions: read-out: IC-50 Anti-PLA2 Activity

Row | Compound | IC50 [1] [µM] | IC50 (PLA2) [µM]
1 | CCCCCCCC/C=C\CCCCCCCC(=O)OCC(COC(=O)CCCCCCC/C=C\CCCCCCCC)(COC(=O)CCCCCCC/C=C\CCCCCCCC)NCCS(=O)(=O)O [PX-13, TES Trioleate] | 60 | 2.2
2 | CCCCCCCC/C=C\CCCCCCCC(=O)OCC(N)(COC(=O)CCCCCCC/C=C\CCCCCCCC)COC(=O)CCCCCCC/C=C\CCCCCCCC [PX-12, P-Toluene Sulfonate Salt of Tris Trioleate] | 50 | 1.5
3 | CCCCC/C=C\C/C=C\CCCCCCCC(=O)OCC1(COC(=O)CCCCCCC/C=C\C/C=C\CCCCC)COC(=O)CN1C(=O)CCCCCCC/C=C\C/C=C\CCCCC [PX-15] |  | 19.2
4 | CCCCC/C=C\C/C=C\CCCCCCCC(=O)OC(C(=O)O)C(OC(=O)CCCCCCC/C=C\C/C=C\CCCCC)C(=O)O (centres unmarked) [PX-9] | 100 | 7.5
5 | CCCCCCCC/C=C\CCCCCCCC(=O)OC(C(=O)O)C(OC(=O)CCCCCCC/C=C\CCCCCCCC)C(=O)O (centres unmarked) [PX-10] | 60 | 7
6 | CCCCCCCC/C=C\CCCCCCCC(=O)OCC1(COC(=O)CCCCCCC/C=C\CCCCCCCC)COC(=O)CN1C(=O)CCCCCCC/C=C\CCCCCCCC [PX-11, Tricinyl Trioleate] | 145 | 2.6
